Source: patent US7160989B2, “Antibodies that recognize and bind phosphorylated human androgen receptor and methods of using same” (New York University, priority 2003, dated 2007)

Tests used:
[1] = molecular target: T1, AR S213 phosphorylation (Homo sapiens, UniProt P10275); assay: Immunoblot of AR S213 phosphorylation in 293 cells transfected with wild type AR; type: cell-based
T1 sequence (P10275 1-920): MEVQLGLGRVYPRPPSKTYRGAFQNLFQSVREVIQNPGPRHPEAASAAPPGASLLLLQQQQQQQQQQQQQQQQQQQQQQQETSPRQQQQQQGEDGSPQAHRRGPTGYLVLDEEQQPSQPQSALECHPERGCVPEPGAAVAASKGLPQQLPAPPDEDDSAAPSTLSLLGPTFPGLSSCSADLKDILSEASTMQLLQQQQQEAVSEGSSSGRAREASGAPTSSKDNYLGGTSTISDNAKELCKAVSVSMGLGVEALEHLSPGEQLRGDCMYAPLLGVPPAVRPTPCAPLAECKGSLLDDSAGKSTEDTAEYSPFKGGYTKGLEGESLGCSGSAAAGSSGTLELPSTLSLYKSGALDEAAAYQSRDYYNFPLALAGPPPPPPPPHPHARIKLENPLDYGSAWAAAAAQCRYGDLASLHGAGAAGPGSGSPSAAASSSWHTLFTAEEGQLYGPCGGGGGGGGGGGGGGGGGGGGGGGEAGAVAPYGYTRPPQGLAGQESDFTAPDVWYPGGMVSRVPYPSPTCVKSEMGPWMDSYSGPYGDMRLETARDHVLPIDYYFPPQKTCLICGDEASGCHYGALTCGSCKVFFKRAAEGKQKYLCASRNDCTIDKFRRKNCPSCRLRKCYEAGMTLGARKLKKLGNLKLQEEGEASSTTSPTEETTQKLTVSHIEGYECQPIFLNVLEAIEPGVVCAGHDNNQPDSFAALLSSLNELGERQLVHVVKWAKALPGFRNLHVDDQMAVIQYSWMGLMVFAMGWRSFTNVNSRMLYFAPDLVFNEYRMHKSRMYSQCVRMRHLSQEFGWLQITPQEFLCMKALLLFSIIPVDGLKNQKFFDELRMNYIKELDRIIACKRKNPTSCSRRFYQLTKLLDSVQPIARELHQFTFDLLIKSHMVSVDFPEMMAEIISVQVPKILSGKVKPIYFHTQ

[2] = tested on: phospho-MAPK (P-MAPK); assay: Immunoblot of phospho-MAPK in transfected 293 cells; type: cell-based, human; settings: 293 cells treated with IGF-1; FIG. 4B
[3] = molecular target: P-S213 AR (Homo sapiens, UniProt P10275); settings: 293 cells, wild type AR, treated with R1881; FIG. 3B
Protocol: Preparation of nuclear and cytoplasmic lysates: Nuclear and cytoplasmic lysates were prepared according to (Lee et al., 1988). Cells (1×10^6 cells) were collected by centrifugation, swelled in a hypotonic buffer, and lysed by extruding the cells through a 25-gauge hypodermic needle. This homogenate was then centrifuged at 14,000 rpm for 5 min to pellet the nuclei, and the supernatant was saved as the cytoplasmic fraction. The proteins were extracted by re-suspension of the nuclear pellet in a high salt buffer and separation of debris by centrifugation. The resulting supernatant was retained as the nuclear fraction.
To assess the subcellular localization of AR-P-S213, fractionation studies were conducted in the presence of R1881.

Compound | AR phosphorylation with IGF-1 alone ([1]; 293 cells, IGF-1 alone 5 or 10 minutes or 2 hours, absence of R1881, FIG. 4B) | MAPK phosphorylation [2] | AR S213 phosphorylation at 10 nM [1] | AR S213 phosphorylation at lower levels [1] | AR S213 phosphorylation, compound alone [1] | AR phosphorylation by hormone [1] | Earliest time at which phosphorylation may occur [1] | Time at which phosphorylation above background is obvious [1] | Sub-cellular localization of P-S213 AR [3]
IGF-1: growth factor used to treat 293 cells; phosphorylates MAPK | does not result in AR phosphorylation | phosphorylated | – | – | – | – | – | – | –
C[C@]1(O)CC[C@H]2[C@@H]3CCC4=CC(=O)CCC4=C3C=C[C@@]21C [R1881] | – | – | robust phosphorylation | not at lower levels | phosphorylated | robust AR phosphorylation | ≥ 10 min | 60 min | predominantly nuclear
